Measured values taken from ChEMBL document CHEMBL5528031, “Synthesis and antitumor activity of cyclopentane-fused anthraquinone derivatives” (Eur J Med Chem, 2024).
In brackets after ≈: the same amount, converted by molar mass.

What was measured:
[1] = system: CAPAN-1; experiment: Antiproliferative activity against human CAPAN-1 cells assessed as inhibition of cell growth incubated for 72 hrs by MTT assay; format: functional, cell-based; details: CAPAN-1, 72 h
[2] = system: HCT-116; experiment: Antiproliferative activity against human HCT-116 cells assessed as inhibition of cell growth incubated for 72 hrs by MTT assay; format: functional, cell-based; details: HCT-116, 72 h
[3] = system: LN-229; experiment: Antiproliferative activity against human LN-229 cells assessed as inhibition of cell growth incubated for 72 hrs by MTT assay; format: functional, cell-based; details: LN-229, 72 h
[4] = system: NCI-H1975; experiment: Antiproliferative activity against human NCI-H1975 cells assessed as inhibition of cell growth incubated for 72 hrs by MTT assay; format: functional, cell-based; details: NCI-H1975, 72 h
[5] = system: Z-138; experiment: Antiproliferative activity against human Z138 cells assessed as inhibition of cell growth incubated for 72 hrs by MTT assay; format: functional, cell-based; details: Z-138, 72 h
[6] = Antiproliferative activity against human DND41 cells assessed as inhibition of cell growth incubated for 72 hrs by MTT assay; format: functional, cell-based; details: DND41, 72 h
[7] = system: HL-60; experiment: Antiproliferative activity against human HL-60 cells assessed as inhibition of cell growth incubated for 72 hrs by MTT assay; format: functional, cell-based; details: HL-60, 72 h
[8] = system: K562; experiment: Antiproliferative activity against human K562 cells assessed as inhibition of cell growth incubated for 72 hrs by MTT assay; format: functional, cell-based; details: K562, 72 h
[9] = Antiproliferative activity against multidrug resistant human K562/4 cells expressing P-gp assessed as inhibition of cell growth incubated for 72 hrs by MTT assay; format: functional, cell-based; details: K562/4, 72 h
[10] = Cytotoxicity against hFB-hTERT6 cells assessed as inhibition of cell growth incubated for 72 hrs by MTT assay; format: toxicity, cell-based; details: human
[11] = Solubility of compound in deionized water at pH 6; format: physicochemical
[12] = Octanol/water partition coefficient, logP of compound at pH 7.4 by HPLC analysis; format: physicochemical

SMILES	IC50 [1]	IC50 [2]	IC50 [3]	IC50 [4]	IC50 [5]	IC50 [6]	IC50 [7]	IC50 [8]	IC50 [9]	IC50 at 72 h [10]	solubility [11]	logD [12]
O=C1c2ccccc2C(=O)c2c(O)c3c(c(O)c21)CC(C(=O)N1CCC(N2CCCCC2)CC1)C3	1500 nM	3100 nM	2800 nM	3100 nM	2500 nM	1700 nM	2400 nM	2000 nM	4600 nM	4500 nM		
N[C@@H]1CCN(C(=O)C2Cc3c(O)c4c(c(O)c3C2)C(=O)c2ccccc2C4=O)C1	1100 nM	1100 nM	2000 nM	1200 nM	2500 nM	2300 nM	2000 nM	2000 nM	2100 nM	4700 nM		
O=C1c2ccccc2C(=O)c2c(O)c3c(c(O)c21)CC(C(=O)N[C@H]1CCNC1)C3	1500 nM	1500 nM	5100 nM	2300 nM	1800 nM	1900 nM	2300 nM	2400 nM	4800 nM	4200 nM		
O=C1c2ccccc2C(=O)c2c(O)c3c(c(O)c21)CC(C(=O)NC1CCNCC1)C3	1700 nM	1000 nM	1400 nM	1800 nM	3100 nM	2000 nM	1500 nM	1600 nM	4500 nM	4500 nM		
NC1CCCN(C(=O)C2Cc3c(O)c4c(c(O)c3C2)C(=O)c2ccccc2C4=O)C1 (configuration not stated)	1000 nM	3200 nM	3500 nM	4600 nM	2200 nM	1500 nM	1900 nM	1700 nM	1200 nM	4000 nM		
O=C1c2ccccc2C(=O)c2c(O)c3c(c(O)c21)CC(C(=O)N[C@@H]1CCNC1)C3	1600 nM	1600 nM	5800 nM	10100 nM	2300 nM	2200 nM	2300 nM	2100 nM	9200 nM	4200 nM		
N[C@H]1CC[C@H](NC(=O)C2Cc3c(O)c4c(c(O)c3C2)C(=O)c2ccccc2C4=O)CC1	1900 nM	2100 nM	4500 nM	6500 nM	2600 nM	2500 nM	2700 nM	2000 nM	8800 nM	4500 nM		
CN1CCN(C(=O)C2Cc3c(O)c4c(c(O)c3C2)C(=O)c2ccccc2C4=O)CC1	35200 nM	24300 nM	35000 nM	18100 nM	36200 nM	10100 nM	> 50000 nM	> 50000 nM	> 50000 nM	> 50000 nM	~1700 µg/mL (≈ 4.18 mM)	
CC(=O)[C@]1(O)Cc2c(O)c3c(c(O)c2[C@@H](O[C@H]2C[C@H](N)[C@H](O)[C@H](C)O2)C1)C(=O)c1c(O)cccc1C3=O [CARUBICIN]												0.95
